IC50 data for 43 compounds are collected here from patent US9006440B2, “Furopyridine derivatives” (Merck Patent GmbH, priority 2010, dated 2015).

One may read the IC50 as the concentration at which inhibition is half-maximal.

This experiment concerns the target T1, Syk (Homo sapiens, UniProt P43405).
T1 construct: purchased BPS Bioscience, CA, USA
Kind of experiment: Syk enzyme assay (SYK flash plate assay / Caliper mobility shift). Type of experiment: biochemical. How it is done: The kinase assay is performed either as 384-well Flashplate assay (for e.g. Topcount measurement) or as 384-well Image-Flashplate assay (for LEADseeker measurement).
2.5 nM SYK, 400 nM Biotin-Aha-Aha-KEDPDYEWPSAKK
and 10 μM ATP (spiked with 0.3 μCi 33P-ATP/well) are incubated in a total volume of 50 μl (60 mM Hepes, 10 mM MgCl2, 1.2 mM Dithiothreitol, 0.02% Brij35, 0.1% BSA, pH 7.5) with or without test compound for 1 hours at 30° C. The reaction is stopped with 25 μl 200 mM EDTA. After 30 Min at 30° C. the liquid is removed and each well washed thrice with 100 μl 0.9% sodium chloride solution. Non-specific reaction is determined in presence of 0.1 μM Staurosporine. Radioactivity is measured with Topcount (when using Flashplates) or with LEADseeker (when using Image-Flashplates) respectively. Results (e.g. IC50-values) are calculated with program tools provided by the IT-department (e.g. Symyx Assay Explorer, Genedata Screener). Enzymatic Assays Using the Caliper LifeSciences Technology
The assays described here are performed on the Caliper Life Sciences LC3000 system This technology provides data on enzyme activity via measurement of the relative amounts of phosphorylated or unphosphorylated fluorescently labelled substrate peptide at the end of an enzymatic reaction. These different states of peptide are resolved by applying a potential difference across the sample. The presence of the charged phosphate group on the product (as opposed to the substrate) causes a different peptide mobility between the two peptides. This is visualized by excitation of the fluorescent label on the substrate and product peptides and represented as peaks within the analysis software.
In order to measure inhibitor activity of kinase inhibitors on this technology, a TTP Mosquito liquid handling instrument is used to place 0.25 ul of the appropriate concentration of inhibitor in 100% DMSO (for a dose response curve calculation) into each well of a 384-well plate. To this reaction components are added to a final volume of 25 ul. The table below indicates the sequences and concentrations for the assays described in this report. Standard components are 1 mM DTT (Sigma, D0632), 1 mM MgCl2 (Sigma, M1028), 100 mM HEPES pH 7.5 (Calbiochem, 391338), 0.015% Brij-35 (Sigma, B4184).
The reaction is incubated for 90 min at 25 C, and then stopped by the addition of 70 ul of Stop buffer (100 mM HEPES pH 7.5, 0.015% Brij-35, 10 mM EDTA (Sigma, E7889)).
The plate is read on a Caliper LC 3000 in an Off-Chip mobility shift assay format, on a 12-sipper chip. Unphosphorylated substrate and phosphorylated product peptide resolve as separate peaks allowing direct measurement of percentage of conversion of substrate to product. The percent conversion can be plotted against concentration of inhibitor to produce a sigmoidal dose response curve, from which an IC50 can be calculated using GeneData Condoseo or a similar product.
On to `COc1cc(-c2cc3nccc(-c4ccc[nH]4)c3o2)cc(OC)c1OC` [Compound C105], for which the IC50 was 0.3 to 3 µM.

For the compound `CC(C)Cn1cc(-c2cc3nccc(-c4cnn(C)c4)c3o2)cn1` [Compound C6], the IC50 was in the range of 0.3 to 3 µM.

In the case of `C=C(C)c1ccc(-c2cc3nccc(Nc4ccc5[nH]ccc5c4C)c3o2)cc1` [Compound B62, [2-(4-Isopropenyl-phenyl)-furo[3,2-b]pyridin-7-yl]-(4-methyl-1H-indol-5-yl)-amine], the IC50 was 3 to 50 µM.

Turning to `Cc1noc(C)c1-c1cc2nccc(-c3cnn(C)c3)c2o1` [Compound C22], the IC50 is 0.3 to 3 µM.

`COc1cc(-c2cc3nccc(-c4cccc(C(=O)NCC5CCCN5C(=O)OC(C)(C)C)c4)c3o2)cc(OC)c1OC` (stereo not shown) [Compound C7]: the IC50 was 0.3 to 3 µM.

On to `Oc1cccc(-c2cc3nccc(-c4ccccc4)c3o2)c1` [Compound C1], for which the IC50 was in the range of 0.3 to 3 µM.

Consider `Fc1ccc(-c2cc3nccc(-c4ccc(F)cc4)c3o2)cc1` [Compound B6, 2,7-Bis-(4-fluoro-phenyl)-furo[3,2-b]pyridine], for which the 50% inhibitory concentration (IC50) was in the range of 3 to 50 µM.

On to `COc1cc(-c2cc3nccc(-c4ccccc4C(C)C)c3o2)cc(OC)c1OC` [Compound C14], for which the concentration for half-maximal inhibition (IC50) lay in the range of 0.3 to 3 µM.

`COc1cc(-c2cc3nccc(-c4ccccc4C)c3o2)cc(OC)c1OC` [Compound A21, 7-o-Tolyl-2-(3,4,5-trimethoxy-phenyl)-furo[3,2-b]pyridine]: the IC50 is less than 0.3 µM.

Regarding `Cn1ncc2cc(-c3cc4nccc(-c5cccc(C(=O)N[C@@H]6CCCC[C@@H]6N)c5)c4o3)ccc21` [Compound C175], the 50% inhibitory concentration (IC50) was less than 0.3 µM.

On to `COc1cc(-c2cc3nccc(-c4ccc(OC5CCOCC5)nc4)c3o2)cc(OC)c1OC` [Compound C28], for which the IC50 lay in the range of 0.3 to 3 µM.

Turning to `COc1cccc(-c2cc3nccc(-c4cccc(OC)c4OC)c3o2)c1OC` [Compound B42, 2,7-Bis-(2,3-dimethoxy-phenyl)-furo[3,2-b]pyridine], the IC50 lay in the range of 3 to 50 µM.

Regarding `COc1cc(-c2cc3nccc(-c4ccc5ncccc5c4)c3o2)cc(OC)c1OC` [Compound A23, 6-[2-(3,4,5-Trimethoxy-phenyl)-furo[3,2-b]pyridin-7-yl]-quinoline], the IC50 is less than 0.3 µM.

Take `COc1cc(-c2cc3nccc(-c4ccnc5ccccc45)c3o2)cc(OC)c1OC` [Compound A24, 4-[2-(3,4,5-Trimethoxy-phenyl)-furo[3,2-b]pyridin-7-yl]-quinoline]: the IC50 fell in the range of 0.3 to 3 µM.

`COc1cc(-c2cc3nccc(-c4cccc(C(=O)NCCN(C)C)c4)c3o2)cc(OC)c1OC` [Compound A8, N-(2-Dimethylamino-ethyl)-3-[2-(3,4,5-trimethoxy-phenyl)-furo[3,2-b]pyridin-7-yl]-benzamide]: the IC50 was less than 0.3 µM.

Turning to `O=C(Nc1ccc(Oc2ccnc3cc(-c4ccccc4)oc23)cc1)c1cccn(-c2ccc(F)cc2)c1=O` [Compound B13, 1-(4-Fluoro-phenyl)-2-oxo-1,2-dihydro-pyridine-3-carboxylic acid [4-(2-phenyl-furo[3,2-b]pyridin-7-yloxy)-phenyl]-amide], the IC50 fell in the range of 0.3 to 3 µM.

As for `COc1cc(-c2cc3nccc(-c4ccc5cc[nH]c5c4)c3o2)cc(OC)c1OC` [Compound A27, 7-(1H-Indol-6-yl)-2-(3,4,5-trimethoxy-phenyl)-furo[3,2-b]pyridine], the IC50 is less than 0.3 µM.

As for `c1ccc(-c2ccnc3cc(-c4ccc(N5CCOCC5)cc4)oc23)cc1` [Compound C50], the half-maximal inhibitory concentration (IC50) lay within 0.3 to 3 µM.

With `CCOC(=O)Cn1cc(-c2ccnc3cc(-c4cc(OC)c(OC)c(OC)c4)oc23)cn1` [Compound A33, {4-[2-(3,4,5-Trimethoxy-phenyl)-furo[3,2-b]pyridin-7-yl]-pyrazol-1-yl}-acetic acid ethyl ester], the IC50 is less than 0.3 µM.

Regarding `COc1cc(-c2cc3nccc(-c4csc(N(C)C)n4)c3o2)cc(OC)c1OC` [Compound C79], the IC50 was in the range of 0.3 to 3 µM.

In the case of `Cn1cc(-c2ccnc3cc(-c4ccc(OC(F)(F)F)cc4)oc23)cn1` [Compound C32], the IC50 fell in the range of 0.3 to 3 µM.

As for `Cn1cc(-c2ccnc3cc(-c4ccc(OCCN5CCCCC5)cc4)oc23)cn1` [Compound C36], the IC50 fell in the range of 0.3 to 3 µM.

On to `c1cncc(-c2ccnc3cc(-c4ccc(N5CCOCC5)nc4)oc23)c1` [Compound C39], for which the IC50 lay within 3 to 50 µM.

As for `COc1ccc(-c2cc3nccc(-c4ccc(OC)c(OC)c4)c3o2)cc1OC` [Compound B39, 2,7-Bis-(3,4-dimethoxy-phenyl)-furo[3,2-b]pyridine], the IC50 was in the range of 0.3 to 3 µM.

On to `COc1cc(-c2cc3nccc(-c4ccc(C(=O)NC5CCCC5)cc4)c3o2)cc(OC)c1OC` [Compound B75, N-Cyclopentyl-4-(2-(3,4,5-trimethoxyphenyl)furo[3,2-b]pyridin-7-yl)benzamide], for which the IC50 was 3 to 50 µM.

On to `COc1cc(-c2cc3nccc(-c4cccc(OCc5ccccc5)c4)c3o2)cc(OC)c1OC` [Compound A31, 7-(3-Benzyloxy-phenyl)-2-(3,4,5-trimethoxy-phenyl)-furo[3,2-b]pyridine], for which the IC50 lay in the range of 3 to 50 µM.

As to `COc1c(C)cc(-c2cc3nccc(-c4cc(C)c(OC)c(C)c4)c3o2)cc1C` [Compound B32, 2,7-Bis-(4-methoxy-3,5-dimethyl-phenyl)-furo[3,2-b]pyridine], the IC50 was in the range of 3 to 50 µM.

On to `COc1cc(-c2cc3nccc(-c4ccc(C#N)cc4)c3o2)cc(OC)c1OC` [Compound A12, 4-[2-(3,4,5-Trimethoxy-phenyl)-furo[3,2-b]pyridin-7-yl]-benzonitrile], for which the IC50 is 3 to 50 µM.

Take `COc1cc(-c2cc3nccc(-c4ccc(C)c5ncccc45)c3o2)cc(OC)c1OC` [Compound A26, 8-Methyl-5-[2-(3,4,5-trimethoxy-phenyl)-furo[3,2-b]pyridin-7-yl]-quinoline]: the IC50 lay in the range of 0.3 to 3 µM.

In the case of `COc1cc(-c2cc3nccc(-c4ccc(CNC(C)=O)cc4)c3o2)cc(OC)c1OC` [Compound A54, N-{4-[2-(3,4,5-Trimethoxy-phenyl)-furo[3,2-b]pyridin-7-yl]-benzyl}-acetamide], the IC50 is 0.3 to 3 µM.

For the compound `COc1cc(-c2cc3nccc(Nc4ccc5c(n4)NC(=O)C(C)(C)O5)c3o2)cc(OC)c1OC` [Compound B29, 2,2-Dimethyl-6-[2-(3,4,5-trimethoxy-phenyl)-furo[3,2-b]pyridin-7-ylamino]-4H-pyrido[3,2-b][1,4]oxazin-3-one], the IC50 fell in the range of 0.3 to 3 µM.

For `CC(C)(C#N)c1ccc(-c2cc3nccc(-c4ccc(C(C)(C)C#N)cc4)c3o2)cc1` [Compound B55, 2-(4-{2-[4-(Cyano-dimethyl-methyl)-phenyl]-furo[3,2-b]pyridin-7-yl}-phenyl)-2-methyl-propionitrile], the IC50 was in the range of 0.3 to 3 µM.

In the case of `Cn1cc(-c2ccnc3cc(-c4ccc(C(C)(C)O)cc4)oc23)cn1` [Compound C100], the IC50 was less than 0.3 µM.

For `COc1cc(-c2cc3nccc(-c4cc(C)c(OC)c(C)c4)c3o2)cc(OC)c1OC` [Compound B73, 7-(4-Methoxy-3,5-dimethylphenyl)-2-(3,4,5-trimethoxyphenyl)furo[3,2-b]pyridine], the IC50 fell in the range of 0.3 to 3 µM.

Regarding `CN1CCN(c2cc(-c3cc4nccc(-c5ccnc(N6CCN(C)CC6)c5)c4o3)ccn2)CC1` [Compound C96], the IC50 lay in the range of 3 to 50 µM.

As for `COc1cc(-c2cc3nccc(-c4cnn(C)c4)c3o2)cc(OC)c1OC` [Compound A34, 7-(1-Methyl-1H-pyrazol-4-yl)-2-(3,4,5-trimethoxy-phenyl)-furo[3,2-b]pyridine], the IC50 was less than 0.3 µM.

As for `COc1cc(-c2cc3nccc(-c4cnn(C)c4)c3o2)ccn1` [Compound C16], the IC50 fell in the range of 0.3 to 3 µM.

With `COc1cc(-c2cc3nccc(-c4cccnc4)c3o2)cc(OC)c1OC` [Compound C13], the IC50 is less than 0.3 µM.

For `COc1cc(-c2cc3nccc(-c4cccc(C(=O)NCCO)c4)c3o2)cc(OC)c1OC` [Compound C5], the IC50 is less than 0.3 µM.

As for `COc1cc(-c2cc3nccc(NCc4cccc(S(C)(=O)=O)c4)c3o2)cc(OC)c1OC` [Compound B9], the IC50 was in the range of 3 to 50 µM.

Consider `Cn1cc(-c2ccnc3cc(-c4ccc(OCC(O)CN5CCCCC5)cc4)oc23)cn1` (stereo not shown) [Compound C38], for which the IC50 lay within 0.3 to 3 µM.

Regarding `Cc1cc(-c2cc3nccc(-c4cnn(C)c4)c3o2)cc(C(C)(C)C)c1` [Compound C9], the IC50 lay within 0.3 to 3 µM.

For `COc1cc(-c2cc3nccc(-c4cnc(N)cc4C)c3o2)cc(OC)c1OC` [Compound C75], the IC50 lay within 0.3 to 3 µM.
